We go through three compounds from patent publication US9617219B2, “Polymorphs of 3-difluoromethyl-1-methyl-1 H-pyrazole-4-carboxylic acid (9-dichloro-methylene-1,2,3,4-tetrahydro-1,4-methano-naphthalen-5-yl)-amide” (Syngenta Participations AG, priority 2014, dated 2017).

Series [1] can be described thus: Competitive slurries of anhydrous Form 1 and hydrate in water/methanol mixtures, stable form determined by DSC. Also noted: key to stable crystal form: A indicates the anhydrous form is the stable form; H indicates the hydrate is the stable form; U data was inconclusive. It counts as physicochemical. As for the experimental part: DSC was carried out using a Mettler Toledo DSC 820 or DSC1. A sample loading of around 5 mg was used and this was heated from 40° C. to 250° C. at a rate of 10° C./minute on the DSC820 or from 25° C. to 250° C. at a rate of 10° C./minute on the DSC1. The lid of the DSC crucible was pierced to allow the escape of any gas formed during the heating of the sample. The thermodynamic stability of hydrated crystals depends not only on temperature but also on the abundance of water, or more precisely, the water activity (aw), which is equivalent to the relative humidity. In order to determine under which conditions the anhydrous polymorph Form 1 and the hydrate are stable, a series of competitive slurries containing both crystal forms were prepared in different water/methanol mixtures and at a range of temperatures. The resulting crystals were analysed by DSC to determine the stable form under the given conditions. […] From the data above, the water/methanol compositions were converted into water activities and a phase diagram was constructed.

A short description of series [2]: Stability of suspension concentrate formulation of anhydrous Form 1 contaminated with 5% hydrated form, temperature cycling. The format is physicochemical. To be noted: SC of anhydrous Form 1 with 5% hydrated form, cycling 0° C. to 40° C. over 12 hours, after two weeks. On the procedure: Two standard suspension concentrate (SC) formulations were separately prepared using the anhydrous Form 1 polymorph and the hydrated polymorph. The SC of the anhydrous Form 1 was contaminated with 5% of the hydrated form and placed in a temperature cycling oven varying from 0° C. to 40° C. over 12 hours. After two weeks, the sample was inspected. […] Some crystals were removed from the formulation and dried.

A value given as a limit tells only on which side of the number the result lay.

Consider `Cn1cc(C(=O)Nc2cccc3c2C2CCC3C2=C(Cl)Cl)c(C(F)F)n1` (racemic) [compound of formula (I), 3-difluoromethyl-1-methyl-1H-pyrazole-4-carboxylic acid (9-dichloromethylene-1,2,3,4-tetrahydro-1,4-methano-naphthalen-5-yl)-amide], for which the stable crystal form entry in series [1] (1% water in methanol, 5 °C) is on record as “A”; in series [1] (1% water in methanol, 20 °C), “A”; in series [1] (1% water in methanol, 35 °C) it was “A”; in series [1] (1% water in methanol, 40 °C), “A”; in series [1] (1% water in methanol, 45 °C) it was “A”; in series [1] (1% water in methanol, 60 °C), “A”. Also, the stable crystal form entry in series [1] (5% water in methanol, 5 °C) was “A”; in series [1] (5% water in methanol, 20 °C), “A”; in series [1] (5% water in methanol, 35 °C) it was “A”; in series [1] (5% water in methanol, 40 °C), “A”; in series [1] (5% water in methanol, 45 °C), “A”; in series [1] (5% water in methanol, 60 °C) it was “A”. For the same compound, the stable crystal form result in series [1] (7.5% water in methanol, 5 °C) is “H”; in series [1] (7.5% water in methanol, 15 °C), “H”; in series [1] (10% water in methanol, 5 °C) it was “H”; in series [1] (10% water in methanol, 15 °C), “H”; in series [1] (10% water in methanol, 20 °C), “U”; in series [1] (10% water in methanol, 30 °C), “U”. The stable crystal form result in series [1] (10% water in methanol, 35 °C) is listed as “A”; in series [1] (10% water in methanol, 40 °C), “A”; in series [1] (10% water in methanol, 45 °C) it was “A”; in series [1] (10% water in methanol, 60 °C) it was “A”; in series [1] (12.5% water in methanol, 5 °C), “H”; in series [1] (15% water in methanol, 5 °C) it was “H”. For the same compound, the stable crystal form entry in series [1] (15% water in methanol, 15 °C) is reported as “H”; in series [1] (15% water in methanol, 50 °C), “H”; in series [1] (15% water in methanol, 60 °C) it was “A”; in series [1] (20% water in methanol, 20 °C) it was “H”; in series [1] (20% water in methanol, 30 °C), “H”; in series [1] (20% water in methanol, 35 °C), “H”. Moreover, the stable crystal form result in series [1] (20% water in methanol, 40 °C) was “H”; in series [1] (20% water in methanol, 45 °C), “H”; in series [1] (20% water in methanol, 60 °C) it was “H”; in series [1] (25% water in methanol, 50 °C), “H”; in series [1] (25% water in methanol, 60 °C), “H”; in series [1] (35% water in methanol, 60 °C) it was “H”.
On to `Cn1cc(C(=O)Nc2cccc3c2C2CCC3C2=C(Cl)Cl)c(C(F)F)n1` (stereo not drawn) [anhydrous polymorph Form 1, 3-difluoromethyl-1-methyl-1H-pyrazole-4-carboxylic acid (9-dichloromethylene-1,2,3,4-tetrahydro-1,4-methano-naphthalen-5-yl)-amide], for which, in series [2], the “polymorphic conversion (powder X-ray diffraction)” value is recorded as “fully converted to the hydrated form” and the “size of the crystals (microscopy)” value is recorded as “increased substantially”.
In the case of `Cn1cc(C(=O)Nc2cccc3c2C2CCC3C2=C(Cl)Cl)c(C(F)F)n1` (stereo not drawn) [hydrate of compound (I), 3-difluoromethyl-1-methyl-1H-pyrazole-4-carboxylic acid (9-dichloromethylene-1,2,3,4-tetrahydro-1,4-methano-naphthalen-5-yl)-amide], the “temperature required to dehydrate the hydrate” value in series [1] (normal ambient relative humidities, from phase diagram (FIG. 3)) was greater than 60 °C.
